The test deals with T1, mouse VISTA (mVISTA) (Mus musculus, UniProt Q9D659).
T1 construct: expressed in transfected cells; host or cells: Human embryonic kidney 293T cells
T1 sequence (Q9D659 33-308): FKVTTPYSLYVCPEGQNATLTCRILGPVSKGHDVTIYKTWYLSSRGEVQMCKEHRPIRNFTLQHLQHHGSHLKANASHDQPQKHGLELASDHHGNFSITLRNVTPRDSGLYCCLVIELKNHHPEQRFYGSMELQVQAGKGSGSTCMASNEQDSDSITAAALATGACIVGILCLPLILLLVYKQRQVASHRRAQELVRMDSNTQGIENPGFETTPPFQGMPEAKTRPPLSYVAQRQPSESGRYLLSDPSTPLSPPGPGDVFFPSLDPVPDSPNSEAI
Description: Cell-Based Binding High-Content Assay For mVISTA (HC CBA mVISTA). As to conditions: read-out: HC CBA mVISTA IC50. The protocol:
Cell-Based Binding High-Content Assay For mVISTA
Human embryonic kidney 293T cells (293T) expressing mouse VISTA (mVISTA) were used for the assessment of compounds competing with the binding of a biotinylated peptide. Cryopreserved cells were thawed in a 37° C. water bath and incubated overnight at a 37° C./5% CO2 incubator in assay culture media DMEM (Life Technologies Inc. Cat. No. 11995-126) supplemented with 10% (v/v) FBS (Sigma, Cat. No. F4135), 1× Penicillin/Streptomycin (Life Technologies Inc. Cat. No. 15140-122). Cells were harvested, washed and resuspended in DMEM media […]. To test compounds under “no-wash” condition, cells were seeded into PDL-coated 384 well plates (Corning, Cat. No. 356663) at 4,000 cells/20 μL. After incubating the cell plates for two hours at a 37° C./5% CO2 incubator, 125 nL of test compound was added using an ECHO. Alternatively, to test compounds under “wash” condition, test compounds were added first, followed by addition of 20 μL cells at a density of 4000 cells/well. After incubation for an hour, the media was removed, followed by addition of 20 μL of fresh media ( ), and plates were then incubated for another hour. To plates either under “no wash” or “wash” condition, the biotinylated peptide was added to a final concentration of 2 nM, and plates were incubated at room temperature for 30 minutes. Fifteen (15) μL of Alexa 647 conjugated Streptavidin (Life Tech, Cat. No. S21374), suspended at 2 μg/ml in media, was added to the assay plate and incubate for 30 minutes. Cells were fixed by adding 15 μL of formaldehyde at a final concentration of 8% (w/v) (Sigma Cat. No. 252549), 20 μg/mL Hoechst (Thermo Scientific Cat. No. 62249) in PBS for 10 minutes at room temperature. The plates were washed 3 times in dPBS, sealed, and read on a CellInsight NXT High Content Screening Platform IC903000 (Thermo Scientific). The 50% effective concentration (IC50) was calculated using the four-parameter logistic formula y=A+((B−A)/(1+((C/x)^D))), where A and B denote minimal and maximal % inhibition, respectively, C is the EC50, D is hill slope and x represent compound concentration.

[1] abbreviates: cell-based binding high-content assay, mVISTA, the 16th table.

Like-named read-outs stand apart in the source and are kept apart here. Starred links: 1 amine or outer side, 2 acyl side, 3 side chain; linkers in the order of their positions; H or OH if unused. Positions of bridges follow the written chain, without caps; N, C: chain ends. Non-standard residues stand in square brackets, D forms with d. Residues, ends and D or L forms follow the SMILES beside them. ξ: configuration not given here. Phe(2,4-F2) = N[C@@H](Cc1ccc(F)cc1F)C(=O)O; γGlu = O=C(O)[C@H](CCC(=O)[*:2])N[*:1]; 2Nal = N[C@@H](Cc1ccc2ccccc2c1)C(=O)O; βAsp = O=C(O)[C@H](CC(=O)[*:2])N[*:1]; Pro(4ξ-F) = O=C(O)[C@@H]1CC(F)CN1; Tic = O=C(O)[C@@H]1Cc2ccccc2CN1; Ahp(2) = CCCCC[C@H](N)C(=O)O; NMeNle = CCCC[C@H](NC)C(=O)O; Tle = CC(C)(C)[C@H](N)C(=O)O; NHexGly = CCCCCCNCC(=O)O; Nle = CCCC[C@H](N)C(=O)O; Orn = NCCC[C@H](N)C(=O)O; Aun = NCCCCCCCCCCC(=O)O; Dab = NCC[C@H](N)C(=O)O; AEEA = NCCOCCOCC(=O)O

Consider `CCCCCCN1CC(=O)N[C@@H](Cc2ccc(O)cc2)C(=O)N[C@@H](CCCC)C(=O)N[C@@H](CC(N)=O)C(=O)N[C@@H](CCCNC(=N)N)C(=O)N2Cc3ccccc3C[C@H]2C(=O)N[C@@H](CCCCC)C(=O)N2CCC[C@H]2C(=O)N[C@@H](C(C)C)C(=O)N[C@@H](CC(=O)O)C(=O)N[C@H](C(=O)NCC(N)=O)CSCC(=O)N[C@@H](Cc2ccccc2)C(=O)N[C@@H](Cc2c[nH]c3ccccc23)C(=O)N[C@@H](CC(=O)O)C1=O` [Example 1414] ({CH2CO}-FWD[NHexGly]Y[Nle]NR[Tic][Ahp(2)]PVDCG-NH2; thioether N-14), for which the IC50 (commonly the concentration at which inhibition is half-maximal) came to 12.3 nM. Consider `CCCCCCN1CC(=O)N[C@@H](Cc2ccc(O)cc2)C(=O)N[C@@H](CCCC)C(=O)N[C@@H](CC(N)=O)C(=O)N[C@@H](CCCNC(=N)N)C(=O)N(C)[C@@H](CCCC)C(=O)N[C@@H](CCCCC)C(=O)N2CC(F)C[C@H]2C(=O)N[C@@H](C(C)(C)C)C(=O)N[C@@H](CO)C(=O)N[C@H](C(=O)N[C@@H](CC(=O)NCCOCCOCC(=O)NCCCCCCCCCCC(=O)O)C(=O)O)CSCC(=O)N[C@@H](Cc2ccccc2)C(=O)N[C@@H](Cc2c[nH]c3ccccc23)C(=O)N[C@@H](CC(=O)O)C1=O` (some centres unmarked) [Example 2194] ({CH2CO}-FWD[NHexGly]Y[Nle]NR[NMeNle][Ahp(2)][Pro(4ξ-F)][Tle]SC[βAsp][AEEA][Aun]-OH; thioether N-14), for which the IC50 was determined as 38.6 nM.

For `CCCCCCN1CC(=O)N[C@@H](Cc2ccc(O)cc2)C(=O)N[C@@H](CCCC)C(=O)N[C@H](CC(N)=O)C(=O)N[C@@H](CCCNC(=N)N)C(=O)N[C@@H](CC(C)C)C(=O)N[C@@H](CCCCC)C(=O)N2CCC[C@H]2C(=O)N[C@@H](C(C)C)C(=O)N[C@@H](CO)C(=O)N[C@H](C(=O)NCC(=O)O)CSCC(=O)N[C@@H](Cc2c[nH]c3ccccc23)C(=O)N[C@@H](Cc2ccc(O)cc2)C(=O)N[C@@H](CC(=O)O)C1=O` [compound 1471] ({CH2CO}-WYD[NHexGly]Y[Nle][dN]RL[Ahp(2)]PVSCG-OH; thioether N-14), the IC50 (the 20th table, scaffold drawing 23) was 32.9 nM. For `CCCCCCN1CC(=O)N[C@@H](Cc2ccc(O)cc2)C(=O)N[C@@H](CCCC)C(=O)N[C@@H](CC(=O)O)C(=O)N[C@@H](CCCN)C(=O)N(C)[C@@H](CCCC)C(=O)N[C@@H](CCCCC)C(=O)N2CCC[C@H]2C(=O)N[C@@H](C(C)(C)C)C(=O)N[C@@H](CO)C(=O)N[C@H](C(=O)N[C@@H](CC(=O)O)C(N)=O)CSCC(=O)N[C@@H](Cc2ccccc2)C(=O)N[C@@H](Cc2c[nH]c3ccccc23)C(=O)N[C@@H](CC(=O)O)C1=O` [Example 1376] ({CH2CO}-FWD[NHexGly]Y[Nle]D[Orn][NMeNle][Ahp(2)]P[Tle]SCD-NH2; thioether N-14), the IC50 amounted to 36.6 nM. The same measure, in the same setting: under `CCCCCCN1CC(=O)N[C@@H](Cc2ccc(O)cc2)C(=O)N[C@@H](CCCC)C(=O)N[C@@H](CC(N)=O)C(=O)N[C@@H](CCCNC(=N)N)C(=O)N(C)[C@@H](CCCC)C(=O)N[C@@H](CCCCC)C(=O)N2CCC[C@H]2C(=O)N[C@@H](C(C)C)C(=O)N[C@@H](CC(=O)O)C(=O)N[C@H](C(=O)N[C@@H](CCN)C(=O)N[C@@H](CCC(N)=O)C(=O)O)CSCC(=O)N[C@@H](Cc2ccccc2)C(=O)N[C@@H](Cc2c[nH]c3ccccc23)C(=O)N[C@@H](CC(=O)O)C1=O` [compound 1132] ({CH2CO}-FWD[NHexGly]Y[Nle]NR[NMeNle][Ahp(2)]PVDC[Dab]Q-OH; thioether N-14) stands 36 nM. Still for that read-out and setting: under `CCCCCCN1CC(=O)N[C@@H](Cc2ccc(O)cc2)C(=O)N[C@@H](CCCCC)C(=O)N[C@@H](CC(N)=O)C(=O)N[C@@H](CCCNC(=N)N)C(=O)N(C)[C@@H](CCCC)C(=O)N[C@@H](CCCCC)C(=O)N2CCC[C@H]2C(=O)N[C@@H](C(C)C)C(=O)N[C@@H](C(C)C)C(=O)N[C@H](C(=O)NCC(=O)O)CSCC(=O)N[C@@H](Cc2ccc(F)cc2F)C(=O)N[C@@H](Cc2c[nH]c3ccccc23)C(=O)N[C@@H](CC(=O)O)C1=O` [compound 1220] ({CH2CO}-[Phe(2,4-F2)]WD[NHexGly]Y[Ahp(2)]NR[NMeNle][Ahp(2)]PVVCG-OH; thioether N-14) stands 24.7 nM. Regarding `CCCCCCN1CC(=O)N[C@@H](Cc2ccc(O)cc2)C(=O)N[C@@H](CCCC)C(=O)N[C@@H](CC(N)=O)C(=O)N[C@@H](CCCNC(=N)N)C(=O)N(C)[C@@H](CCCC)C(=O)N[C@@H](CCCCC)C(=O)N2CCC[C@H]2C(=O)N[C@@H](C(C)C)C(=O)N[C@@H](CC(=O)O)C(=O)N[C@H](C(=O)NCC(=O)O)CSCC(=O)N[C@@H](Cc2ccc3ccccc3c2)C(=O)N[C@@H](Cc2ccc(O)cc2)C(=O)N[C@@H](CC(=O)O)C1=O` [Ex 1308] ({CH2CO}-[2Nal]YD[NHexGly]Y[Nle]NR[NMeNle][Ahp(2)]PVDCG-OH; thioether N-14), under setting [1], the IC50 is 9.5 nM.

Regarding `CCCCCCN1CC(=O)N[C@@H](Cc2ccc(O)cc2)C(=O)N[C@@H](CC(C)C)C(=O)N[C@@H](CC(N)=O)C(=O)N[C@@H](CCCNC(=N)N)C(=O)N[C@@H](CC(C)C)C(=O)N[C@@H](CCCCC)C(=O)N2CCC[C@H]2C(=O)N[C@@H](C(C)C)C(=O)N[C@@H](C(C)C)C(=O)N[C@H](C(=O)NCCOCCOCC(=O)N[C@@H](CC(=O)NCCOCCOCC(=O)NCCCCCCCCCCC(=O)O)C(=O)O)CSCC(=O)N[C@@H](Cc2ccccc2)C(=O)N[C@@H](Cc2ccc(O)cc2)C(=O)N[C@@H](CC(=O)O)C1=O` [Example 2201] ({CH2CO}-FYD[NHexGly]YLNRL[Ahp(2)]PVVC[AEEA][βAsp][AEEA][Aun]-OH; thioether N-14), the IC50 came to 20.9 nM. As for `CCCCCCN1CC(=O)N[C@@H](Cc2ccc(O)cc2)C(=O)N[C@@H](CC(C)C)C(=O)NCC(=O)N[C@@H](CCCNC(=N)N)C(=O)N[C@@H](CC(N)=O)C(=O)N[C@@H](CCCCC)C(=O)N2CCC[C@H]2C(=O)N[C@@H](C(C)C)C(=O)N[C@@H](CO)C(=O)N[C@H](C(=O)NCC(N)=O)CSCC(=O)N[C@@H](Cc2ccc3ccccc3c2)C(=O)N[C@@H](Cc2ccc(O)cc2)C(=O)N[C@@H](CC(=O)O)C1=O` [Ex 1295] ({CH2CO}-[2Nal]YD[NHexGly]YLGRN[Ahp(2)]PVSCG-NH2; thioether N-14), under setting [1], the IC50 was 31.4 nM. Turning to `CCCCCCN1CC(=O)N[C@@H](Cc2ccc(O)cc2)C(=O)N[C@@H](CCCC)C(=O)NCC(=O)N[C@@H](CCCNC(=N)N)C(=O)N[C@@H](CC(C)C)C(=O)N[C@@H](CCCCC)C(=O)N2CCC[C@H]2C(=O)N[C@@H](C(C)C)C(=O)N[C@@H](CC(N)=O)C(=O)N[C@H](C(=O)NCC(=O)O)CSCC(=O)N[C@@H](Cc2ccccc2)C(=O)N[C@@H](Cc2ccc(O)cc2)C(=O)N[C@@H](CC(=O)O)C1=O` [Example 1028] ({CH2CO}-FYD[NHexGly]Y[Nle]GRL[Ahp(2)]PVNCG-OH; thioether N-14), the IC50 (293T cells expressing mouse VISTA, competition with biotinylated peptide (2 nM)) was determined as 5.2 nM.

Regarding `CCCCCCN1CC(=O)N[C@@H](Cc2ccc(O)cc2)C(=O)N[C@@H](CCCC)C(=O)N[C@@H](CC(N)=O)C(=O)N[C@@H](CCCNC(=N)N)C(=O)N(C)[C@@H](CCCC)C(=O)N[C@@H](CCCCC)C(=O)N2CCC[C@H]2C(=O)N[C@@H](C(C)(C)C)C(=O)N[C@@H](CO)C(=O)N[C@H](C(=O)NCCOCCOCC(=O)N[C@@H](CCC(=O)NCCOCCOCC(=O)NCCCCCCCCCCC(=O)O)C(=O)O)CSCC(=O)N[C@@H](Cc2ccc3ccccc3c2)C(=O)N[C@@H](Cc2ccc(O)cc2)C(=O)N[C@@H](CC(=O)O)C1=O` [compound 2227] ({CH2CO}-[2Nal]YD[NHexGly]Y[Nle]NR[NMeNle][Ahp(2)]P[Tle]SC[AEEA][γGlu][AEEA][Aun]-OH; thioether N-14), the IC50 was 41.5 nM.

These data come from patent US20240218022A1, “ANTI-VISTA MACROCYCLIC PEPTIDES AND COMPOSITIONS” (BRISTOL-MYERS SQUIBB COMPANY, priority 2022, published 2024).
